The text below walks through data of PMC7069776 (Journal of medicinal chemistry, 2019).

One experiment has as its target Hsp90 (Candida albicans, UniProt P46598). Put plainly: biochemical.
For experiment [1], the system named is C. albicans clinical isolate (CaCi2). Description: Antifungal sensitivity testing. The conditions noted are these: CaCi2, cultures spotted on compound-free YPD agar, 30 °C, 24 h. The format is cell-based.
In experiment [2] the test system is C. neoformans (Strain H99). Conditions: H99, RPMI 1640, 37 °C (Fig. 4A).
A further experiment has as its system C. albicans Hsp90 NBD. Conditions: cited from earlier work.

Sequence of Hsp90 (P46598 whole entry): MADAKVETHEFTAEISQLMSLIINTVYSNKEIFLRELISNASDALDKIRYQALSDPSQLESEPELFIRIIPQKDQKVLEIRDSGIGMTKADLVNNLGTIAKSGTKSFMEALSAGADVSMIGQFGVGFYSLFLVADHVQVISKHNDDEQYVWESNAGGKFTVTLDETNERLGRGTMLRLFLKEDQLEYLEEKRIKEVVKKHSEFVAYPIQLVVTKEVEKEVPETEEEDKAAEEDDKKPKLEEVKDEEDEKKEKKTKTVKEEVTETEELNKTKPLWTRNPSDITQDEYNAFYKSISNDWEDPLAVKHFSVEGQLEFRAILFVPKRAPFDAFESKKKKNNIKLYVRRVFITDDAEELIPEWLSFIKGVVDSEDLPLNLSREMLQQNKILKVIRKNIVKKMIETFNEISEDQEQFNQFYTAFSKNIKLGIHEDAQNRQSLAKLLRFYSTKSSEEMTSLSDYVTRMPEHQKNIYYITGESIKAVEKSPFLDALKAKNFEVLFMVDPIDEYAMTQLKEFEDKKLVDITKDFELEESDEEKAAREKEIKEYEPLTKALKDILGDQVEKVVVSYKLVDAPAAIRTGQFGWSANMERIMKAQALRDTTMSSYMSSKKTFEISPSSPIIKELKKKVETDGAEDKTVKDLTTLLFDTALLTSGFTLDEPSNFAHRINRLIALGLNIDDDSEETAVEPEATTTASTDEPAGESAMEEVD

For orientation: EC50 means the concentration at which the effect is half-maximal. On Hsp90, `CCN(CC)C(=O)c1c(O)cc(O)cc1Nc1cc(-c2ccccc2)nn1Cc1ccc(OC)cc1` [Compound 39, N,N-Diethyl-2,4-dihydroxy-6-((1-((4-methoxyphenyl)methyl)-3-phenyl-1H-pyrazol-5-yl)amino)benzamide] registered an EC50 above 10 µM.

On to `COc1ccc(Cn2nc(C)cc2Nc2cc(O)cc(O)c2C(=O)N(C)CC2CC2)cc1` [Compound 30, N-(Cyclopropylmethyl)-2,4-dihydroxy-6-((1-((4-methoxyphenyl)methyl)-3-methyl-1H-pyrazol-5-yl)amino)-N-methylbenzamide], for which, at Hsp90, the EC50 is above 9 µM.

As for `Cc1cc(Nc2cc(O)cc(O)c2C(=O)N2Cc3ccccc3C2)n(Cc2ccccc2Cl)n1` [Compound 89, 5-((1-((2-Chlorophenyl)methyl)-3-methyl-1H-pyrazol-5-yl)amino)-4-(2,3-dihydro-1H-isoindole-2-carbonyl)benzene-1,3-diol], the “fungicidal activity in combination with fluconazole” value (“fungicidal activity in combination” below) in experiment [1] was “fungicidal activity”.

With `Cc1ccccc1-c1cc(Nc2cc(O)cc(O)c2C(=O)N2Cc3ccccc3C2)n(C)n1` [Compound 106, 4-(2,3-Dihydro-1H-isoindole-2-carbonyl)-5-((1-methyl-3-(2-methylphenyl)-1H-pyrazol-5-yl)amino)benzene-1,3-diol], the “concentration inhibiting growth of C. neoformans” value in experiment [2] is reported as “below 10 μM”.

Turning to `Cn1nc(-c2ccc(OC(F)(F)F)cc2)cc1Nc1cc(O)cc(O)c1C(=O)N1Cc2ccccc2C1` [Compound 130, 4-(2,3-Dihydro-1H-isoindole-2-carbonyl)-5-((1-methyl-3-(4-(trifluoromethoxy)phenyl)-1H-pyrazol-5-yl)amino)benzene-1,3-diol], the “fungicidal activity in combination” value in experiment [1] is listed as “fungicidal”.

As to `COc1ccc(Cn2nc(C)cc2Nc2cc(O)cc(O)c2C(=O)N(C)Cc2ccccc2)cc1` [Compound 37, N-Benzyl-2,4-dihydroxy-6-((1-((4-methoxyphenyl)methyl)-3-methyl-1H-pyrazol-5-yl)amino)-N-methylbenzamide], the concentration for a half-maximal effect (EC50) on Hsp90 is above 6 µM.

Regarding `COc1ccc(Cn2nc(-c3ccccc3)cc2Nc2cc(O)cc(O)c2C(=O)N2Cc3ccccc3C2)cc1` [Compound 21, 4-(2,3-dihydro-1H-isoindole-2-carbonyl)-5-((1-((4-methoxyphenyl)methyl)-3-phenyl-1H-pyrazol-5-yl)amino)benzene-1,3-diol], the “fungicidal activity in combination” value in experiment [1] is given as “fungicidal activity”.

As to `COc1ccc(Cn2nc(-c3ccccc3)cc2Nc2cc(O)cc(O)c2C(=O)N(C)CC2CC2)cc1` [Compound 31, N-(Cyclopropylmethyl)-2,4-dihydroxy-6-((1-((4-methoxyphenyl)methyl)-3-phenyl-1H-pyrazol-5-yl)amino)-N-methylbenzamide], the concentration giving a half-maximal response (EC50) at Hsp90 is above 9 µM.

`COc1ccc(Cn2ncc(C)c2Nc2cc(O)cc(O)c2C(=O)N2Cc3ccccc3C2)cc1` [Compound 41, 4-(2,3-Dihydro-1H-isoindole-2-carbonyl)-5-((1-((4-methoxyphenyl)methyl)-4-methyl-1H-pyrazol-5-yl)amino)benzene-1,3-diol]: in experiment [1], the “fungicidal activity in combination” value is reported as “fungicidal activity”.

Regarding `COc1ccc(CO\N=C2/C=C/C=C\[C@H]3O[C@@H]3C[C@@H](C)OC(=O)c3c(O)cc(O)cc3C2)cc1` [CMLD013075], in the experiment on C. albicans Hsp90 NBD, the “binding selectivity for the C. albicans Hsp90 NBD compared to the human ortholog” value is above 25 fold.
